Data published in patent US7115649B2, “Methods of treating skin disorders using thio-oxindole derivatives” (Wyeth, priority 2002, dated 2006).

Experiments:
acne vulgaris = test: Treatment of acne in a human patient, oral tablet daily; type: in vivo; settings: about 20 mg tablet orally daily
Experimental: A human patient having acne vulgaris is treated according to the present invention. Specifically, 5-(5-Cyano-1-methyl-1H-pyrrol-2-yl)spiro[cyclohexane-1,3′-[3H]indol]-2′-ylidenecyanamide is orally delivered to the patient daily. Delivery is in the form of a tablet formulated to contain about 20 mg of 5′-(5-Cyano-1-methyl-1H-pyrrol-2-yl)spiro[cyclohexane-1,3′-[3H]indol]-2′-ylidenecyanamide.

eczema = test: Conditioning the skin of a human patient with severe eczema; type: in vivo; settings: about 50 mg daily
Experimental: A human patient having a severe form of eczema is treated according to the present invention. Specifically, about 50 mg of 5′-(5-Cyano-1-methyl-1H-pyrrol-2-yl)spiro[cyclohexane-1,3′-[3H]indol]-2′-ylidenecyanamide is delivered to the patient daily.

androgen receptor (AR) = target: T1, androgen receptor (AR) (Mus musculus, UniProt P19091); test: Androgen receptor agonistic and antagonistic activity, PRE-tk-luciferase reporter in L929 cells; type: cell-based
T1 construct: in the L929 cells which express the AR but not the PR; endogenous in cells; host or cells: L929 cells
T1 sequence (P19091 1-899): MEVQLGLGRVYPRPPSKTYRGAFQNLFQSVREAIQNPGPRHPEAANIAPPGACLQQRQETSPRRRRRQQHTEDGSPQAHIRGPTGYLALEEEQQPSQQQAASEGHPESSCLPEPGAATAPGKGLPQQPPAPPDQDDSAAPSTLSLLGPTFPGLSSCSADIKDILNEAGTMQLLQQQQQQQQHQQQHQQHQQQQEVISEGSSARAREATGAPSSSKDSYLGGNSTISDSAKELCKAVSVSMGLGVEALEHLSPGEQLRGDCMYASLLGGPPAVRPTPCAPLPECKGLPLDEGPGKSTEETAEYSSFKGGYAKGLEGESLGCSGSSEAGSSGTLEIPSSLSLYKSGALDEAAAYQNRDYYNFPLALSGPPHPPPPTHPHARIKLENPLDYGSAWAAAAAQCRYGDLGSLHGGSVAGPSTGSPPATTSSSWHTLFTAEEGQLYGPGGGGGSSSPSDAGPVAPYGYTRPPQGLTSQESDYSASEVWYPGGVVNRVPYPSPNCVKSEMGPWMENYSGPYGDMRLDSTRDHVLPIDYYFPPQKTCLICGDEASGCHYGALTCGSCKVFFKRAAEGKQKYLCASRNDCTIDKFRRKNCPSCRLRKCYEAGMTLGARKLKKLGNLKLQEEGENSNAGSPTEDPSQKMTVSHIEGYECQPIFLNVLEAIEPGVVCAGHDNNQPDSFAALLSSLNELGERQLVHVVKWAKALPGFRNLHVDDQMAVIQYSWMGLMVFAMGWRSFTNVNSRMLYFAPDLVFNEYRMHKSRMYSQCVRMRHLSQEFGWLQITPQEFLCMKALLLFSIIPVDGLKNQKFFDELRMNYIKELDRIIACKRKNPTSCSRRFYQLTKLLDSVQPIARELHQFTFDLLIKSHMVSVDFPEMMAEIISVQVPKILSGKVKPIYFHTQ
Experimental: The androgen receptor (AR) agonistic and antagonistic activity of the compositions of the invention in the L929 cells which express the AR but not the PR was evaluated as described in Zhang et al., Steroids, 65(10–11): 637–643 (October–November 2000).
Cells were plated in 96-well plates at 25,000 cells/well in DMEM (BioWhittaker) with 10% (v/v) fetal bovine serum (FBS). The next day, cells were infected with the adenovirus PRE-tk-luciferase reporter construct (2×10^9 pfu/ml particles) and kept in DMEM containing 10% charcoal stripped FBS for an additional 24 hours. […] To test the anti-androgenic activity, cells were co-treated with 3 nM DHT. Luciferase activity was measured 24 hours following the treatment.

- agonistic activity (androgen receptor (AR); at the maximum concentration tested (10 nM)): only marginal agonistic activity
- IC50 (androgen receptor (AR); co-treated with 3 nM DHT, luciferase activity 24 hours after treatment, read-out: IC50 (anti-androgenic activity)): 313 nM
- antagonistic activity (androgen receptor (AR); nine point dose response, co-treated with 3 nM DHT): significant antagonistic activity
SMILES: Cn1c(C#N)ccc1-c1ccc2c(c1)C1(CCCCC1)C(=NC#N)N2 [5′-(5-Cyano-1-methyl-1H-pyrrol-2-yl)spiro[cyclohexane-1,3′-[3H]indol]-2′-ylidenecyanamide]
- acne vulgaris (acne vulgaris; after about 24 weeks): improvement in the acne vulgaris is observed
- presence of lesions caused by acne vulgaris (acne vulgaris; forty-five to sixty days after the treatment): a decrease in the presence of lesions caused by acne vulgaris is noticed
- eczema (eczema; after about 12 weeks): improvement in the eczema is observed
- dryness of the skin (eczema; thirty days after the treatment): a decrease in the dryness affected to the skin is noticed
